In ChEMBL document CHEMBL1201862, “PubChem BioAssay data set” (2004):
Where “and” joins values, the source holds several entries; their conditions need not be identical. Equal entries are not always repeated. Blank lines part the entries; values can stand above or below the compound they belong to. Calls of active or inactive are those of the source.

Key:
[1] = biological target: T1, Sentrin-specific protease 8 (Homo sapiens, UniProt Q96LD8); assay type: functional;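 further: luminescence read-out of SENP8 inhibition, dose-response confirmation following an ultra-high-throughput screen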
T1 sequence (Q96LD8 whole entry): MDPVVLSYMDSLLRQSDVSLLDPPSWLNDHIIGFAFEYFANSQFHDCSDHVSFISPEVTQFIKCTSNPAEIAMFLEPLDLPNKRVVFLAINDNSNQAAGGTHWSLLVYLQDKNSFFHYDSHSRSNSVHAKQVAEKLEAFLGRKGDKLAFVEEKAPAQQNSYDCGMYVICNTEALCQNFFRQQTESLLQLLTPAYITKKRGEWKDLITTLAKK

[2] = biological target: Tyrosyl-DNA phosphodiesterase 2 (Homo sapiens, UniProt O95551); experiment: potency against TDP2 phosphodiesterase activity – biochemical, epi absorbance, IC50, dose response (AID 743297)
[3] = HEK-293T viability loss after treatment – luminescence, T-cell screen hits, cytotoxicity control for TCR NF-kB inhibitor project, dose response (AID 489026); assay type: functional, cell-based;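 further: cells exposed to compound about 14 hours before the viability readout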
[4] = biological target: Protein kinase C zeta type (Homo sapiens, UniProt Q05513); assay type: functional;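 further: measured as one member of a broad kinase profiling panel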
[5] = biological target: Death-associated protein kinase 3 (Homo sapiens, UniProt O43293); assay type: functional;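 further: measured as one member of a kinome-wide profiling panel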
[6] = biological target: Serine/threonine-protein kinase PAK 1 (Homo sapiens, UniProt Q13153); assay type: functional
[7] = biological target: Calcium/calmodulin-dependent protein kinase type II subunit delta (Homo sapiens, UniProt Q13557); assay type: functional
[8] = biological target: MAP/microtubule affinity-regulating kinase 3 (Homo sapiens, UniProt P27448); assay type: functional;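 further: MARK3 affinity measured as one member of a kinome panel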
[9] = biological target: Protein kinase C gamma type (Homo sapiens, UniProt P05129); assay type: functional
[10] = biological target: Mitogen-activated protein kinase kinase kinase kinase 2 (Homo sapiens, UniProt Q12851); assay type: functional;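 further: measured as one member of a kinome-wide kinase panel, with MAP4K2 as the panel entry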
[11] = biological target: Ephrin type-A receptor 2 (Homo sapiens, UniProt P29317); assay type: functional;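 further: EPHA2 tested as one member of a kinome-wide kinase panel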
[12] = biological target: Mitogen-activated protein kinase 1 (Homo sapiens, UniProt P28482); assay type: functional
[13] = biological target: Vascular endothelial growth factor receptor 3 (Homo sapiens, UniProt P35916); assay type: functional;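 further: value from a kinome-wide profiling panel, with FLT4 as the panel member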
[14] = biological target: Cyclin-dependent kinase 19 (Homo sapiens, UniProt Q9BWU1); experiment: Navigating the Kinome. Panel member name: CDC2L6; assay type: functional
[15] = biological target: Calcium/calmodulin-dependent protein kinase type 1 (Homo sapiens, UniProt Q14012); assay type: functional
[16] = biological target: Tyrosine-protein kinase Fyn (Homo sapiens, UniProt P06241); assay type: functional
[17] = biological target: Serine/threonine-protein kinase DCLK1 (Homo sapiens, UniProt O15075); assay type: functional;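 further: affinity for DCLK1 (listed as DCAMKL1) measured as one member of a kinome-wide kinase profiling panel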
[18] = biological target: Glycogen synthase kinase-3 beta (Homo sapiens, UniProt P49841); assay type: functional;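 further: value comes from a broad kinome profiling panel, with GSK3B as the panel member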
[19] = biological target: BDNF/NT-3 growth factors receptor (Homo sapiens, UniProt Q16620); assay type: functional;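 further: NTRK2 measured as one member of a broad kinome-wide kinase profiling panel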
[20] = biological target: Serine/threonine-protein kinase MRCK alpha (Homo sapiens, UniProt Q5VT25); assay type: functional
[21] = biological target: Serine/threonine-protein kinase NLK (Homo sapiens, UniProt Q9UBE8); experiment: Navigating the Kinome. Panel member name: NLK; assay type: functional
[22] = viability of HCT116 lacking mutant beta-catenin – cell-based, human colon tumor, dose response (AID 1045); assay type: functional;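 further: HCT116 colon tumor cells with beta catenin knocked out; cells exposed to compound for 60 hours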
[23] = biological target: T2, Mannose-6-phosphate isomerase (Homo sapiens, UniProt P34949); experiment: phosphomannose isomerase inhibition – biochemical, fluorescence intensity, confirmation (AID 1535)
T2 sequence (P34949 whole entry): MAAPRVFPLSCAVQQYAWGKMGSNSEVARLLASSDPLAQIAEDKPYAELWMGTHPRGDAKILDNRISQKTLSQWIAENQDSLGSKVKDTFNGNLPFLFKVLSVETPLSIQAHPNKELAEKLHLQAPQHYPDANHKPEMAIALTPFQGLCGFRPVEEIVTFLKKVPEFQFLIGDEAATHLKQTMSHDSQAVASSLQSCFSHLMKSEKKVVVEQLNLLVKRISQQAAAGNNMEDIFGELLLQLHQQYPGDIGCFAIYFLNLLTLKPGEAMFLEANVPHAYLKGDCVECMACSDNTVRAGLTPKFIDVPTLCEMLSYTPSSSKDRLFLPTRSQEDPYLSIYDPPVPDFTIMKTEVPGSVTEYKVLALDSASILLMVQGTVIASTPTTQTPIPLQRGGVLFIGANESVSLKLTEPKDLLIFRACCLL

[24] = biological target: T3, Rac GTPase-activating protein 1 (Homo sapiens, UniProt Q9H0H5); experiment: blockers of MgcRacGAP-driven Rac1 GTP hydrolysis – biochemical, ADP Hunter fluorescence, primary and confirmatory, confirmation (AID 624330); assay type: functional
T3 sequence (Q9H0H5 whole entry): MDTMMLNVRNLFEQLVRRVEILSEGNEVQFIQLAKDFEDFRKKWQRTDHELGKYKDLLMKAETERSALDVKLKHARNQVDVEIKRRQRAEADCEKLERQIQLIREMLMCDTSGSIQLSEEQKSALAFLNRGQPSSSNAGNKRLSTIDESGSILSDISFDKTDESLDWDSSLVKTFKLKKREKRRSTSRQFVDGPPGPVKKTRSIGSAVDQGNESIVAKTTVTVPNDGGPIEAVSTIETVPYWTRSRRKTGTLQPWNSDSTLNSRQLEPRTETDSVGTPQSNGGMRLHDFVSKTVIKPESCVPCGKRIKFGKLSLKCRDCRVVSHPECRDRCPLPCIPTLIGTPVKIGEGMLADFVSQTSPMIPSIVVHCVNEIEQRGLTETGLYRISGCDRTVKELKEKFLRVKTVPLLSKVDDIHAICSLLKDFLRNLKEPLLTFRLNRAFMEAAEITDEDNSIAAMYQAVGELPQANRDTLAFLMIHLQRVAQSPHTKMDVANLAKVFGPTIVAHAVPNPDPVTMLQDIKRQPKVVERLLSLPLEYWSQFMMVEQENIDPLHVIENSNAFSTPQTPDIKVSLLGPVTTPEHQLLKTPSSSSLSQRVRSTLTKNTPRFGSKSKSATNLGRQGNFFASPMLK

[25] = NIH-3T3 fibroblast cytotoxicity, dose response, cytotoxicity control, cell-based, fluorescence, Alamar Blue, secondary assay (AID 2327); assay type: functional;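 further: NIH-3T3 mouse fibroblasts cultured with fluconazole at 8 µg/mL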
[26] = test system: INS1; experiment: INS-1E survival protection against cytokine death – cell-based, luminescence, retest, dose response (AID 449756); assay type: functional; settings: Rattus norvegicus;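 further: cell death triggered by IL-1 beta plus TNF-alpha plus IFN-gamma mixture; protective hits raise ATP signal compared with cytokine alone wells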
[27] = biological target: Large T antigen (Simian virus 40, UniProt P03070); assay type: functional, Betapolyomavirus macacae;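 further: Confirmatory-stage PubChem screen for compounds that inhibit SV40 T antigen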
[28] = biological target: Cytochrome P450 2C19 (Homo sapiens, UniProt P33261); experiment: Cytochrome panel assay with activity outcomes. Panel member name: p450-cyp2c19 Compounds with AC50 equal or less than 10 uM are considered active; assay type: functional; settings: read-out: AC50
Sequence of Cytochrome P450 2C19 (P33261 whole entry): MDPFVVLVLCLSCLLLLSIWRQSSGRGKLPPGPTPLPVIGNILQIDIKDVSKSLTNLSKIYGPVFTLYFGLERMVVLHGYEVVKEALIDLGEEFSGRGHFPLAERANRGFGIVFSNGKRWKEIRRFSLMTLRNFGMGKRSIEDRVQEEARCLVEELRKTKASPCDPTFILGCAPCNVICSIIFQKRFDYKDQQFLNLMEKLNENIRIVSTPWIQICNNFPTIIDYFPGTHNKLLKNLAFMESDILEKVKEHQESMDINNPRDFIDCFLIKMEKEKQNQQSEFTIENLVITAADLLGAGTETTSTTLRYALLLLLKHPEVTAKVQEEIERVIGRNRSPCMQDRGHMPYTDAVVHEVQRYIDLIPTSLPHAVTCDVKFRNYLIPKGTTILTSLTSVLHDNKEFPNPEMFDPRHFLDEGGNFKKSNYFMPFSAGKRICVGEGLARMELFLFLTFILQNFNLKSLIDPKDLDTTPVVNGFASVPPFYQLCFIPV

Sequence of Serine/threonine-protein kinase DCLK1 (O15075 whole entry): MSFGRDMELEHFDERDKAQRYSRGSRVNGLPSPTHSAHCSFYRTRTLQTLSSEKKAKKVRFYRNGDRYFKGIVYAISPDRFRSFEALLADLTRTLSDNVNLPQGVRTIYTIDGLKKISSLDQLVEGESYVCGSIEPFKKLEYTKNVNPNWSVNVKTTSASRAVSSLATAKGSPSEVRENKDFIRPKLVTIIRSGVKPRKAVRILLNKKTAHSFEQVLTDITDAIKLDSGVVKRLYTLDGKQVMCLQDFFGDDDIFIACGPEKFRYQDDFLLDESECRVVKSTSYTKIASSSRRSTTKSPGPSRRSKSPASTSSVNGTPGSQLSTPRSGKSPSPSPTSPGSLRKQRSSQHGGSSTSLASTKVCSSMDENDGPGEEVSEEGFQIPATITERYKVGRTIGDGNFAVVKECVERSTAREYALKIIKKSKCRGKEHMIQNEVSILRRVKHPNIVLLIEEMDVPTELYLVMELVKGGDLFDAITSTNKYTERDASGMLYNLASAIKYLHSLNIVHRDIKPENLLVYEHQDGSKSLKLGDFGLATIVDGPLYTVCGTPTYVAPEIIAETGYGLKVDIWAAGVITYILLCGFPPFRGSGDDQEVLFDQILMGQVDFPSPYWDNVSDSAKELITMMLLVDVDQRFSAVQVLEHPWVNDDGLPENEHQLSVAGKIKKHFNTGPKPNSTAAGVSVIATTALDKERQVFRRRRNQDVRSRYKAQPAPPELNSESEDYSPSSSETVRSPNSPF
Sequence of MAP/microtubule affinity-regulating kinase 3 (P27448 whole entry): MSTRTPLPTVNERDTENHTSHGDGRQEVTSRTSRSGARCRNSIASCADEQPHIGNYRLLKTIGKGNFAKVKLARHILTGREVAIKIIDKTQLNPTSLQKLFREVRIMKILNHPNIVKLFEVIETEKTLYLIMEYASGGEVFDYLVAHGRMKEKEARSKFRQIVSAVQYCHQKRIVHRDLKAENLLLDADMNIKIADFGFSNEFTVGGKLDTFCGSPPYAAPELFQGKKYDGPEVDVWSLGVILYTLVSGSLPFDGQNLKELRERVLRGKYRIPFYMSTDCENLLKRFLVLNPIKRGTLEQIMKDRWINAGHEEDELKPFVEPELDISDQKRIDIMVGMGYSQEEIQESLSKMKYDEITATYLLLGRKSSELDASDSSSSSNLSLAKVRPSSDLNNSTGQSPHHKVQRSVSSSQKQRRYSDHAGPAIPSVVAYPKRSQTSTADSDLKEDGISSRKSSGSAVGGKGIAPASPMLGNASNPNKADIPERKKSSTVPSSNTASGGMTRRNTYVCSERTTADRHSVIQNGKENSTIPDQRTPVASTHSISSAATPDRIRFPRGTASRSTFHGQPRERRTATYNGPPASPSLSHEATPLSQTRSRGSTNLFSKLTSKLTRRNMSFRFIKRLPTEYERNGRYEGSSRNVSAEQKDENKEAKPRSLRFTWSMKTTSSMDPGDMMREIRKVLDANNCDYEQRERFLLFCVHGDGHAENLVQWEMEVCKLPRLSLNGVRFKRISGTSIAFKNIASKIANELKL
Sequence of Mitogen-activated protein kinase 1 (P28482 whole entry): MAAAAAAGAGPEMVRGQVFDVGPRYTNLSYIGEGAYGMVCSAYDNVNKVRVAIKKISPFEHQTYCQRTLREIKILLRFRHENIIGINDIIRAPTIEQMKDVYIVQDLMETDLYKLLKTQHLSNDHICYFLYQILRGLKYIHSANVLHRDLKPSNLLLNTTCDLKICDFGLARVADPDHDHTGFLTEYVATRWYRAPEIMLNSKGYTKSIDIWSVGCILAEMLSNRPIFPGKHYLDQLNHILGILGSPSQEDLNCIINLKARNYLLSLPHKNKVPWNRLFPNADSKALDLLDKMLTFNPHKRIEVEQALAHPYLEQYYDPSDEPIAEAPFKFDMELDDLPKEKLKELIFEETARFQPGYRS
Sequence of BDNF/NT-3 growth factors receptor (Q16620 whole entry): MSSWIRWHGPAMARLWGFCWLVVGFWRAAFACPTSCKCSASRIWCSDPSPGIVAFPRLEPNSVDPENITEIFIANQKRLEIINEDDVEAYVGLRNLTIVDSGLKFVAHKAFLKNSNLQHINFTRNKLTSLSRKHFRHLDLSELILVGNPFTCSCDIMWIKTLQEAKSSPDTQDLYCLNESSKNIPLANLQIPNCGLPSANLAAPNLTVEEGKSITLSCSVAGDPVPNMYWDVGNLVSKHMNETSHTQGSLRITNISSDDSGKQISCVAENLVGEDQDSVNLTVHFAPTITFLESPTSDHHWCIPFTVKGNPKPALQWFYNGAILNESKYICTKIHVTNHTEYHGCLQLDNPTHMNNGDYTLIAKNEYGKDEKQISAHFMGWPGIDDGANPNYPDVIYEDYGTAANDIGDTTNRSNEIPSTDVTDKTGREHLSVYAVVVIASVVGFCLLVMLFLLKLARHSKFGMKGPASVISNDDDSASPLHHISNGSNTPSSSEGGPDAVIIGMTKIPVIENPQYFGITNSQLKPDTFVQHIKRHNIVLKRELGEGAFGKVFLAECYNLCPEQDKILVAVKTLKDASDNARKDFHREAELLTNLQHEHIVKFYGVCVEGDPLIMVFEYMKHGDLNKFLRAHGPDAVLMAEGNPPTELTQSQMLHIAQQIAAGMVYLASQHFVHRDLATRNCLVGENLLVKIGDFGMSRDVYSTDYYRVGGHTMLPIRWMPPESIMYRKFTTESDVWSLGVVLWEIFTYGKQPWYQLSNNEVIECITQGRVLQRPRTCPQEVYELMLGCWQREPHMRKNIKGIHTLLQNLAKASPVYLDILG
Sequence of Tyrosine-protein kinase Fyn (P06241 whole entry): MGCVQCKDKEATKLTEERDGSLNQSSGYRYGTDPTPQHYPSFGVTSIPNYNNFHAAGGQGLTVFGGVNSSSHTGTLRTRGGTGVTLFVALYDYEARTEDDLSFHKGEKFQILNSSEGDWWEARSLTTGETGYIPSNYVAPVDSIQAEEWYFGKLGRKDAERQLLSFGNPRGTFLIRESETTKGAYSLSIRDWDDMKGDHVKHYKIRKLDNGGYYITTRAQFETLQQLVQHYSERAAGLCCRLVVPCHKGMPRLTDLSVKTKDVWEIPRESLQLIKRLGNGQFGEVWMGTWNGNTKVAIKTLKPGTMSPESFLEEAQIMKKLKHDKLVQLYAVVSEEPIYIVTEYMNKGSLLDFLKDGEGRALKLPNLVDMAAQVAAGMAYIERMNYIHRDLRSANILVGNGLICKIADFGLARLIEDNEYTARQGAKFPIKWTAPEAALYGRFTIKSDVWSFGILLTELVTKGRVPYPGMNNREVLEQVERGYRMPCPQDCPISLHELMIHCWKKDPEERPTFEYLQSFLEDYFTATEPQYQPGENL
Sequence of Large T antigen (P03070 whole entry): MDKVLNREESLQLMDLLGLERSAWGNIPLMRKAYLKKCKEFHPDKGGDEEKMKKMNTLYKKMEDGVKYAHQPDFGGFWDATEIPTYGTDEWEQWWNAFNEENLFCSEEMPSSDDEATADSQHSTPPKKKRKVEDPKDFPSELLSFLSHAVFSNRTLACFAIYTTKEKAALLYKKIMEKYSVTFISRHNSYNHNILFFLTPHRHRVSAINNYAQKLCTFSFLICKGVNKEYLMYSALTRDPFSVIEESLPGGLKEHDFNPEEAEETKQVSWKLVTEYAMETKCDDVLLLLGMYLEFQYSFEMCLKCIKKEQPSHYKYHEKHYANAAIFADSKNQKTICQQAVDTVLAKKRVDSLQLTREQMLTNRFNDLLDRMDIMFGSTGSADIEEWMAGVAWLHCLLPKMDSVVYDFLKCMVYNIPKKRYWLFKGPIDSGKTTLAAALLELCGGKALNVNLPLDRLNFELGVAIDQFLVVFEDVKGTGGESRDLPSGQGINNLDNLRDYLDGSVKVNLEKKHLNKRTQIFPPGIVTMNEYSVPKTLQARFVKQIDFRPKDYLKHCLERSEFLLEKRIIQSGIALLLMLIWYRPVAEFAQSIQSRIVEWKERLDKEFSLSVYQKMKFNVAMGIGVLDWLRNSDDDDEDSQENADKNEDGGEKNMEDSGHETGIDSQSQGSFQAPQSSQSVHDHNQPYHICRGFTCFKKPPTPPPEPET
Sequence of Tyrosyl-DNA phosphodiesterase 2 (O95551 whole entry): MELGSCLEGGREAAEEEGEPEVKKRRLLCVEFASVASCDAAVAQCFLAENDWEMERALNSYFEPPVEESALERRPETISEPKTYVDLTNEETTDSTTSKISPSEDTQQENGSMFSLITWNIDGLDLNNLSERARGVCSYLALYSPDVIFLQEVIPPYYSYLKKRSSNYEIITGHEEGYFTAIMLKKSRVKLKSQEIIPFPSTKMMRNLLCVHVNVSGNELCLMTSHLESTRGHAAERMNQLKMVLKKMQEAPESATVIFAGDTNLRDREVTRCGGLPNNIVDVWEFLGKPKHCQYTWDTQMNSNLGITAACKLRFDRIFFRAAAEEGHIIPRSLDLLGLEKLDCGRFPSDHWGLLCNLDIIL

SMILES: CC(=O)N(/N=C1\Sc2ccccc2C1=O)c1ccccc1C
IC50 [1]: 3.46 µM (active)
IC50 [2]: 7.67 µM (active)

SMILES: CCC(=O)NC(c1ccc(C)cc1)c1ccc2cccnc2c1O (stereo not drawn)
IC50 [3]: > 80 µM (inactive)

Ki [4]: > 7.94 µM (inactive)
Ki [6]: > 10 µM (inactive)
Ki [7]: > 6.31 µM (inactive)
Ki [8]: 3.16 µM (active)
Ki [9]: > 7.94 µM (inactive)
Ki [10]: 2 µM (active)
Ki [11]: 0.0316 µM (active)
Ki [12]: > 7.94 µM (inactive)
Ki [13]: 0.158 µM (active)
Ki [14]: > 100 µM (inactive)
Ki [15]: > 6.31 µM (inactive)
Ki [16]: > 0.794 µM (inactive)
Ki [17]: > 10 µM (inactive)
Ki [18]: 3.16 µM (active)
Ki [19]: 0.2 µM (active)
Ki [20]: > 10 µM (inactive)
Ki [21]: 0.02 µM (active)
SMILES: Cc1cccc(NC(=O)Nc2ccc3c(c2)CCc2sc4ncnc(N)c4c2-3)c1
Ki [5]: > 1.26 µM (inactive)

SMILES: Cc1ccc(-n2sc3ccccc3c2=O)cc1
EC50 [22]: 24.4 µM (active)
IC50 [23]: 7.04 µM (active) and 4.06 µM (active)
IC50 [24]: 87.4 µM (active)

SMILES: CCCC(=O)NC(c1ccc(Cl)cc1)c1ccc2cccnc2c1O (stereo not drawn)
EC50 [25]: 18 µM (active)
AC50 [26]: 0.458 µM (active)

SMILES: N/C(=N\N=C/c1ccc(-c2ccc(O)c(C(=O)O)c2)o1)N[N+](=O)[O-]
IC50 [27]: 25.4 µM (active)
AC50 [28]: 39.8 µM (inconclusive)
